Substitutions are numbered along the chain they refer to.
Experiments:
GLP-1R [1] = target: GLP-1R (Homo sapiens, UniProt P43220, W39A); test: Whole-cell binding assay, competition with 125I-GLP-1(7-36)NH2; set-up: Flag; expressed in transfected cells; details: GLP-1R W39A; CHO-K1
How it was run: (§1)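 CHO-K1 cells transiently transfected with WT or mutant receptor constructs, washed in F-12 with 0.1% BSA or casein/33 mM HEPES and incubated 2 h at 37 °C. Bound radioactivity counted after Triton lysis; data normalized to WT and fitted to a three-parameter logistic equation.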

GLP-1R [2] = target: GLP-1R (Homo sapiens, UniProt P43220, D198A); test: as above; set-up: Flag; expressed in transfected cells; details: GLP-1R D198A, CHO-K1
How it was run: as §1

GLP-1R [3] = target: GLP-1R (Homo sapiens, UniProt P43220, Y205A); test: as above; set-up: Flag; expressed in transfected cells; details: GLP-1R Y205A, CHO-K1
How it was run: as §1

GIPR [4] = target: T1, GIPR (Homo sapiens, UniProt P48546, W209A); test: cAMP accumulation assay (LANCE Ultra cAMP kit), GIPR WT, mutant or modified constructs; assay type: cell-based; set-up: acylated tirzepatide to the full-length or modified; Flag; expressed in transfected cells; host or cells: HEK293T; details: GIPR W209A, HEK293T
T1 sequence (P48546 22-466 W209A): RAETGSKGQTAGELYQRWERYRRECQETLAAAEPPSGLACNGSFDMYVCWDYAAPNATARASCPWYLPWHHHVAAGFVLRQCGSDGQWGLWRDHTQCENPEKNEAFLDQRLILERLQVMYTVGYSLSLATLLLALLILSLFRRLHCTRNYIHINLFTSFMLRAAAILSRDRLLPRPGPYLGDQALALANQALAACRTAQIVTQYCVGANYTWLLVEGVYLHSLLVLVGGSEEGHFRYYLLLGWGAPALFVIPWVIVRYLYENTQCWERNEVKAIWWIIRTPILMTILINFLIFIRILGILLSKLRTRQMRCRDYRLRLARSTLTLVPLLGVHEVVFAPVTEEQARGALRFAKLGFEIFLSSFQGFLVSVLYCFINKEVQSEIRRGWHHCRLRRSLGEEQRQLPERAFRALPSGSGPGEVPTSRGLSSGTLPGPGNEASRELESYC
How it was run: (§2)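 HEK293T cells transiently transfected with human GIPR WT or mutant constructs (pcDNA3.1), used after 24 h. The cells were stimulated with peptide agonists for 40 min at RT in HBSS with 5 mM HEPES, 0.1% BSA or casein, and 0.5 mM IBMX. cAMP was read by LANCE Ultra TR-FRET (Eu-cAMP tracer/ULight anti-cAMP, 1 h RT, 620/650 nm).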

GIPR [5] = target: T2, GIPR (Homo sapiens, UniProt P48546, E135A); test: as above; assay type: cell-based; set-up: acylated tirzepatide to the full-length or modified; Flag; expressed in transfected cells; host or cells: HEK293T; details: GIPR E135A, HEK293T
T2 sequence (P48546 22-466 E135A): T1 sequence (P48546 22-466 W209A) with E114A, A188W
How it was run: as §2

[6] = read-out: binding pIC50 (converted)
[7] = read-out: cAMP pEC50 (converted)

GLP-1R (Homo sapiens, UniProt P43220, W39A), sequence (P43220 24-463 W39A): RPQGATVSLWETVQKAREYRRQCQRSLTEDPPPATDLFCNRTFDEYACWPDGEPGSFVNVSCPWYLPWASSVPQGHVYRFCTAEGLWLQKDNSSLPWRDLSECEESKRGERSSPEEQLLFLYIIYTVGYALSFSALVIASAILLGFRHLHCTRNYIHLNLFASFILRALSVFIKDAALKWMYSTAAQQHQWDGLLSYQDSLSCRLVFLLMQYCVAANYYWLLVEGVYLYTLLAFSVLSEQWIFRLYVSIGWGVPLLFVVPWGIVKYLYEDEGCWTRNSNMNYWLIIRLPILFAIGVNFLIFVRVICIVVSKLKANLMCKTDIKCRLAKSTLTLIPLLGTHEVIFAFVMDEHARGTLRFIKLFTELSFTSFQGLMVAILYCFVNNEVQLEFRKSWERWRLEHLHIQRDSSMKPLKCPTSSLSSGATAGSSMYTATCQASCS
GLP-1R (Homo sapiens, UniProt P43220, Y205A), sequence (P43220 24-463 Y205A): as the sequence (P43220 24-463 W39A) above, with A16W, Y182A counted along it
GLP-1R (Homo sapiens, UniProt P43220, D198A), sequence (P43220 24-463 D198A): as the sequence (P43220 24-463 W39A) above, with A16W, D175A counted along it

In the case of `CCCCCCCCCCCCCCCC(=O)N[C@@H](CCC(=O)NCCCC[C@H](NC(=O)[C@H](CC(=O)O)NC(=O)[C@H](CO)NC(=O)[C@@H](NC(=O)[C@H](Cc1ccccc1)NC(=O)[C@@H](NC(=O)CNC(=O)[C@H](CCC(N)=O)NC(=O)C(C)(C)NC(=O)[C@@H](N)Cc1c[nH]cn1)[C@@H](C)O)[C@@H](C)O)C(=O)N[C@@H](CO)C(=O)N[C@@H](CCCCN)C(=O)N[C@@H](Cc1ccc(O)cc1)C(=O)N[C@@H](CC(C)C)C(=O)N[C@@H](CC(=O)O)C(=O)N[C@@H](CCC(=O)O)C(=O)N[C@@H](CCCNC(=N)N)C(=O)N[C@@H](C)C(=O)N[C@@H](C)C(=O)N[C@@H](CCC(N)=O)C(=O)N[C@@H](CC(=O)O)C(=O)N[C@@H](Cc1ccccc1)C(=O)N[C@H](C(=O)N[C@@H](CCC(N)=O)C(=O)N[C@@H](Cc1c[nH]c2ccccc12)C(=O)N[C@@H](CC(C)C)C(=O)N[C@@H](CC(C)C)C(=O)N[C@@H](CC(=O)O)C(=O)NCC(=O)NCC(=O)N1CCC[C@H]1C(=O)N[C@@H](CO)C(=O)N[C@@H](CO)C(=O)NCC(=O)N[C@@H](C)C(=O)N1CCC[C@H]1C(=O)N1CCC[C@H]1C(=O)N1CCC[C@H]1C(=O)N[C@@H](CO)C(N)=O)C(C)C)C(=O)O` [Peptide 20], the “binding Span” value (GLP-1R [1]) is reported as “N.B”, the “binding pIC50” value (GLP-1R [1]) is reported as “N.B” and the “binding Span” value (GLP-1R [2]) is reported as 1.88 ± 1.66 % WT. The IC50 (GLP-1R [2]; [6]) was 52.5 nM, the “binding Span” value (GLP-1R [3]) was 6.01 ± 3.17 % WT and the IC50 (GLP-1R [3]; [6]) was 50.1 nM. For the same compound, the EC50 (GIPR [4]; [7]) was 0.00363 nM, the Emax (GIPR [4]; HEK-293T) was 100 ± 1.45% and the EC50 (GIPR [5]; [7]) was 0.0427 nM. It also gave an Emax (GIPR [5]; HEK-293T) of 100 ± 1.44%.
